Assay results: patent US12343404B2, “Ligand-targeted cell conjugate (LTCC)-based anti-tumor immune cell” (priority 2020, dated 2025)

Tested on: NK92-MI cells
Assay: Influence of azido sugar on NK cell activity (CCK8, OD450)
Format: cell-based
Conditions: final concentration 50 μM; 24 hours and 48 hours; vs 0.1% DMSO control
Description: This embodiment describes validation of influences of the added non-natural sugars on cell activities. The specific method is as follows: non-natural sugars were absorbed by cells; the cells were cultured for a period of time; then, OD450 was determined using a cell counting kit 8 (CCK8) (Beyotime), and a difference in cell activities of a group added with sugars and a group without sugars was analyzed.
The specific process is as follows: 1×10^5 pieces of NK cells were laid in a 96-pore plates; 0.1% DMSO was added into a control group, while Ac4ManNAz with a final concentration of 50 μM (the mount of the DMSO was equivalent to 0.1%) was added into an experimental group; then, the cells were cultured in an incubator at 37° C., and subsequently added with the CCK8 after 24 hours and 48 hours respectively; and after 2-hour incubation, OD450 was detected using a microplate reader.

CC(=O)OC[C@H]1OC(OC(C)=O)[C@@H](NC(=O)CN=[N+]=[N-])[C@@H](OC(C)=O)[C@@H]1OC(C)=O (stereo partly shown) [Ac4ManNAz, N-azidoacetylmannosamine-tetraacylated]
influence on cell activities (OD450, CCK8): not toxic to cells, but slightly promoted growth
